In brackets after ≈: the same amount, converted by molar mass. Read-outs that look alike come from different tables or passages of the source.
What was measured:
[1] = biological target: T1, beta-catenin/TCF4 engagement (Homo sapiens, UniProt P35222); experiment: Nano-BRET target engagement assay (B-cat-Halo & TCF4-Luc in HEK293 cells); format: cell-based; conditions: for inhibition at 10 µM: HEK293, 10 uM, read-out: NanoBRET % inh @ 10 uM
T1 construct: expressed in transfected cells; host or cells: HEK293
T1 sequence (P35222 1-781): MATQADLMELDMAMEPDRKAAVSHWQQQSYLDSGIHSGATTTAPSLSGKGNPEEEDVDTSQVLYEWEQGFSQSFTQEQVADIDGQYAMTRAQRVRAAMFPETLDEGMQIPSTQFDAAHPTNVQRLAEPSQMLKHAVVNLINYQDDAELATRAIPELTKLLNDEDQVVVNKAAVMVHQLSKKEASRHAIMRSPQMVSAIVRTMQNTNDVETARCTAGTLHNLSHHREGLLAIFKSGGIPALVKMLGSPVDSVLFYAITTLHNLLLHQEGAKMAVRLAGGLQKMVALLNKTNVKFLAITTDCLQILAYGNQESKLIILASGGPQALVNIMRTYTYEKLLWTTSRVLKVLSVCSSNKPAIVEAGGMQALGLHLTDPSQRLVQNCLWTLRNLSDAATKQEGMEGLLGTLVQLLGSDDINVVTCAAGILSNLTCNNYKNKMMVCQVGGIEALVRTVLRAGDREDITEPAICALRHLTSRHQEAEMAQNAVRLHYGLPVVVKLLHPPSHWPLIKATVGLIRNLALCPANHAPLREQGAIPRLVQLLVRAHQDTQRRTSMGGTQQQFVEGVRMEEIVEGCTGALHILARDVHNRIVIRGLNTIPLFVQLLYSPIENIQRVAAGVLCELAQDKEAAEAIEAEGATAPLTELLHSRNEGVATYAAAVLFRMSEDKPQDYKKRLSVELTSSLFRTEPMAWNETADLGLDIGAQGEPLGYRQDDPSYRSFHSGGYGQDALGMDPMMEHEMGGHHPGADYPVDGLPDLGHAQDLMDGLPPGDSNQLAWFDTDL

[2] = biological target: T2, full-length beta-Catenin (Uniprot ID P35222) (Homo sapiens, UniProt P35222); experiment: Fluorescence polarization IC50 (beta-catenin / 5FAM-TCF4 10-53 competition); format: binding
T2 construct: 10 nM full-length beta-Catenin (Uniprot ID P35222)
T2 sequence (P35222 1-781): T1 sequence (P35222 1-781)

[3] = CHI Log D procedure; format: physicochemical
[4] = Solubility in PBS; format: physicochemical
Summary of the method: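 The PBS solution was ultracentrifuged and the supernatant analyzed by HPLC. Its peak area was divided by that of a 50 μM peptide DMSO reference injection and multiplied by 50 uM to give solubility.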

[5] = fluorescence polarization, beta-catenin, read-out: FP EC50
[6] = fluorescence polarization, read-out: beta-Catenin FP IC50

Row | SMILES | IC50 ([2]; read-out: beta-Catenin FP IC50) [nM] | chromatographic logD ([3]; pH 7.4, CHI Log D) | Solubility ([4]; Solubility (uM)) [µM] | Solubility [4] [µM] | CHI Log D ([3]; pH 7.4) | further results
1 | CC(=O)N1CCC[C@]12CC=CCCCC1(CCCC=CCCCOC(=O)N3CC[C@@](C(=O)N[C@@H](Cc4ccccc4Cl)C(=O)N[C@@H](Cc4csc5ccccc45)C(=O)N[C@@H](CCC(N)=O)C(N)=O)(C3)NC(=O)[C@H](CC(N)=O)NC(=O)[C@H](Cc3ccccc3)NC(=O)[C@H](C)NC(=O)[C@H](C)NC(=O)[C@H](CN(CC(=O)O)CC(F)(F)F)NC(=O)[C@H](CC(=O)O)NC1=O)NC(=O)[C@H](CC(C)(C)C)NC(=O)[C@H](CC(=O)O)NC2=O (stereo partly drawn) [I-921, Ac-PL3-Asp-Npg-B5-Asp-TfeGA-Ala-Ala-Phe-Asn-PyrS2-2C1F-BztA-Gln-NH2] | 8 | 2.26 | 24 (≈ 49.4 µg/mL) |  |  | IC50 ([1]; read-out: NanoBRET IC50): 4 µM
2 | CC(=O)N1CCC[C@]12CC=CCCCC1(CCCC=CCCCOC(=O)N3CC[C@@](C(=O)N[C@@H](Cc4ccccc4Cl)C(=O)N[C@@H](Cc4csc5ccccc45)C(=O)N[C@@H](CCC(N)=O)C(=O)NCCCCCCN)(C3)NC(=O)[C@H]([C@@H](C)O)NC(=O)[C@H](Cc3ccccc3)NC(=O)[C@H](C)NC(=O)[C@H](C)NC(=O)[C@H](CN(CC(=O)O)CC(F)(F)F)NC(=O)[C@H](CC(=O)O)NC1=O)NC(=O)[C@H](CC(C)(C)C)NC(=O)[C@H](CC(=O)O)NC2=O (stereo partly drawn) [I-1061, Ac-PL3-Asp-Npg-B5-Asp-TfeGA-Ala-Ala-Phe-Thr-PyrS2-2C1F-BztA-Gln-6AmHex] | 6 | 2.56 |  | 10 (≈ 21.4 µg/mL) |  | IC50 ([1]; absolute IC50, read-out: NanoBRET Abs IC50): 10.3 µM
3 | CC(=O)N1CCC[C@]12CC=CCCCC1(CCCC=CCCCCOC(=O)N3CC[C@@](C(=O)N[C@@H](Cc4ccsc4)C(=O)N[C@@H](Cc4csc5ccccc45)C(=O)N[C@@H](CC(N)=O)C(=O)N[C@H](C)C(N)=O)(C3)NC(=O)[C@H](CC(N)=O)NC(=O)[C@H](Cc3ccccc3)NC(=O)[C@H](C)NC(=O)[C@H](C)NC(=O)[C@H](CC(=O)O)NC(=O)[C@H](CC(=O)O)NC1=O)NC(=O)[C@H](CC(C)(C)C)NC(=O)[C@H](CC(=O)O)NC2=O (stereo partly drawn) [I-835, Ac-PL3-Asp-Npg-B5-Asp-Asp-Ala-Ala-Phe-Asn-PyrS3-3Thi-BztA-Asn-dAla-NH2] | 11 |  |  | 50 (≈ 99.5 µg/mL) | 2.109 | inhibition at 10 µM [1]: 27.6%; IC50 ([1]; read-out: NanoBRET Abs IC50): 37.6 µM; IC50 [2, 5]: 11 nM
4 | CC(=O)N1CCC[C@]12CC=CCCCC1(CCCC=CCCCOC(=O)N3CC[C@@](C(=O)N[C@@H](Cc4ccccc4Cl)C(=O)N[C@@H](Cc4csc5ccccc45)C(=O)N[C@@H](CCC(N)=O)C(N)=O)(C3)NC(=O)[C@H]([C@@H](C)O)NC(=O)[C@H](Cc3ccccc3)NC(=O)[C@H](C)NC(=O)[C@H](C)NC(=O)[C@H](CC(=O)O)NC(=O)[C@H](CC(=O)O)NC1=O)NC(=O)[C@H](CC1CCCCC1)NC(=O)[C@H](CC(=O)O)NC2=O (stereo partly drawn) [I-1042, Ac-PL3-Asp-Cha-B5-Asp-Asp-Ala-Ala-Phe-Thr-PyrS2-2C1F-BztA-Gln-NH2] | 5 | 2.35 | 46 (≈ 90.1 µg/mL) |  |  | IC50 ([1]; read-out: NanoBRET Abs IC50): 11.4 µM
5 | CC(=O)N1CCC[C@]12CC=CCCCC1(CCCC=CCCCCCC[C@@](C)(C(=O)N[C@@H](Cc3ccsc3)C(=O)N[C@@H](Cc3csc4ccccc34)C(=O)N[C@@H](CCC(N)=O)C(N)=O)NC(=O)[C@H](CC(N)=O)NC(=O)[C@H](Cc3ccccc3)NC(=O)[C@H](C)NC(=O)[C@H](C)NC(=O)[C@H](CN(CC(=O)O)CC(F)(F)F)NC(=O)[C@H](CC(=O)O)NC1=O)NC(=O)[C@H](CC(C)(C)C)NC(=O)[C@H](CC(=O)O)NC2=O (stereo partly drawn) [I-704, Ac-PL3-Asp-Npg-B5-Asp-TfeGA-Ala-Ala-Phe-Asn-S8-3Thi-BztA-Gln-NH2] |  | 2.75 | 42 (≈ 83.4 µg/mL) |  |  | IC50 ([1]; read-out: NanoBRET IC50): 7.9 µM; IC50 [2, 6]: 49 nM
6 | CC(=O)N1CCC[C@]12CC=CCCCC1(CCCC=CCCCOC(=O)N3CC[C@@](C(=O)N[C@@H](Cc4ccsc4)C(=O)N[C@@H](Cc4csc5ccccc45)C(=O)N[C@H](CC(N)=O)C(N)=O)(C3)NC(=O)[C@H](CC(N)=O)NC(=O)[C@H](Cc3ccccc3)NC(=O)[C@H](C)NC(=O)[C@H](C)NC(=O)[C@H](CC(=O)O)NC(=O)[C@H](CC(=O)O)NC1=O)NC(=O)[C@H](CC(C)(C)C)NC(=O)[C@H](CC(=O)O)NC2=O (stereo partly drawn) [I-818, Ac-PL3-Asp-Npg-B5-Asp-Asp-Ala-Ala-Phe-Asn-PyrS2-3Thi-BztA-dAsn-NH2] | 6 | 2.12 | 48 (≈ 91.4 µg/mL) |  |  | inhibition at 10 µM [1]: 31.4%; IC50 ([1]; read-out: NanoBRET Abs IC50): 15 µM
7 | CC(=O)N1CCC[C@]12CC=CCCCC1(CCCC=CCCCCCC[C@@](C)(C(=O)N[C@@H](Cc3ccccc3)C(=O)N[C@@H](C)C(=O)N[C@@H](CCC(N)=O)C(N)=O)NC(=O)[C@H](C(C)C)NC(=O)[C@H](Cc3ccccc3)NC(=O)[C@H](C)NC(=O)[C@H](C)NC(=O)[C@H](CC(=O)O)NC(=O)[C@H](CC(=O)O)NC1=O)NC(=O)[C@H](C)NC(=O)[C@H](CC(=O)O)NC2=O (stereo partly drawn) [I-357, Ac-PL3-Asp-Ala-B5-Asp-Asp-Ala-Ala-Phe-Val-S8-Phe-Ala-Gln-NH2] |  |  |  | 46 (≈ 76.6 µg/mL) | 1.852 | inhibition at 10 µM [1]: -5.3%
8 | C[C@@H]1NC(=O)[C@H](C)NC(=O)[C@H](CN(CC(=O)O)CC(F)(F)F)NC(=O)[C@H](CC(=O)O)NC(=O)C2(CCCC=CCCCOC(=O)N3CC[C@@](C(=O)N[C@@H](Cc4ccsc4)C(=O)N[C@@H](Cc4csc5ccccc45)C(=O)N[C@@H](CCC(N)=O)C(N)=O)(C3)NC(=O)[C@H](CC(N)=O)NC(=O)[C@H](Cc3ccccc3)NC1=O)CCCC=CC[C@]1(CCCN1C(=O)CN=[N+]=[N-])C(=O)N[C@@H](CC(=O)O)C(=O)N[C@@H](CC(C)(C)C)C(=O)N2 (stereo partly drawn) [I-1054, AzAc-PL3-Asp-Npg-B5-Asp-TfeGA-Ala-Ala-Phe-Asn-PyrS2-3Thi-BztA-Gln-NH2] |  |  |  | 46 (≈ 95.2 µg/mL) |  | IC50 ([1]; NanoBRET Abs IC50 (uM), absolute IC50): > 20 µM; chromatographic logD ([3]; pH 7.4): 2.19
9 | CC(=O)N1CCC[C@]12CC=CCCCC1(CCCC=CCCCCCC[C@@](C)(C(=O)N[C@@H](Cc3ccccc3)C(=O)N[C@@H](Cc3csc4ccccc34)C(=O)N[C@H](C(N)=O)[C@@H](C)O)NC(=O)[C@H](CCC(N)=O)NC(=O)[C@H](Cc3ccccc3)NC(=O)[C@H](C)NC(=O)[C@H](C)NC(=O)[C@H](CCC(=O)O)NC(=O)[C@H](CC(=O)O)NC1=O)NC(=O)[C@H](C)NC(=O)[C@H](CC(=O)O)NC2=O (stereo partly drawn) [I-507, Ac-PL3-Asp-Ala-B5-Asp-Glu-Ala-Ala-Phe-Gln-S8-Phe-BztA-Thr-NH2] |  |  |  | 47 (≈ 85.3 µg/mL) | 2.079 | IC50 [2, 6]: 192 nM; IC50 ([2]; read-out: FP EC50): 192 nM
10 | CC(=O)N1CCC[C@]12CC=CCCCC1(CCCC=CCCCOC(=O)N3CC[C@@](C(=O)N[C@@H](Cc4ccsc4)C(=O)N[C@@H](Cc4csc5ccccc45)C(=O)N[C@@H](Cc4ccc(O)cc4)C(N)=O)(C3)NC(=O)[C@H](CC(N)=O)NC(=O)[C@H](Cc3ccccc3)NC(=O)[C@H](C)NC(=O)[C@H](C)NC(=O)[C@H](CN(CC(=O)O)CC(F)(F)F)NC(=O)[C@H](CC(=O)O)NC1=O)NC(=O)[C@H](CC(C)(C)C)NC(=O)[C@H](CC(=O)O)NC2=O (stereo partly drawn) [I-953, Ac-PL3-Asp-Npg-B5-Asp-TfeGA-Ala-Ala-Phe-Asn-PyrS2-3Thi-BztA-Tyr-NH2] | 1460 |  |  | 47 (≈ 97 µg/mL) | 2.04 | IC50 [2, 5]: 1460 nM
11 | CC(=O)N1CCC[C@]12CC=CCCCC1(CCCC=CCCCOC(=O)N3CC[C@@](C(=O)N[C@@H](Cc4ccsc4)C(=O)N[C@@H](Cc4csc5ccccc45)C(=O)N[C@@H](CCC(N)=O)C(N)=O)(C3)NC(=O)[C@H](CC(N)=O)NC(=O)[C@H](Cc3ccccc3)NC(=O)[C@H](CCCCNC(=O)CCc3cc(C(F)(F)F)cc(C(F)(F)F)c3)NC(=O)[C@H](C)NC(=O)[C@H](CC(=O)O)NC(=O)[C@H](CC(=O)O)NC1=O)NC(=O)[C@H](CC(C)(C)C)NC(=O)[C@H](CC(=O)O)NC2=O (stereo partly drawn) [I-883, Ac-PL3-Asp-Npg-B5-Asp-Asp-Ala-[35CF3PhPr]Lys-Phe-Asn-PyrS2-3Thi-BztA-Gln-NH2] | 53 | 2.4 | 42 (≈ 94.2 µg/mL) |  |  | 

— patent US20240116985A1, “STAPLED PEPTIDES AND METHODS THEREOF” (priority 2020, published 2024)
